Our source for the IC50 values is ChEMBL document CHEMBL1131689, “Synthesis and evaluation of geldanamycin-estradiol hybrids” (Bioorg Med Chem Lett, 1999).

What all share (assay type): functional, cell-based
Assay [1] in a line: Inhibition of steady-state expression of ER in MCF-7 breast cancer cells. Particulars: Homo sapiens, MCF7.
Assay [2] in a line: Inhibition of steady-state expression of HER2 in MCF-7 breast cancer cells. Particulars: Homo sapiens, MCF7.
The target of a further assay is Heat shock protein HSP90 (Homo sapiens, UniProt P07900+P08238). Put plainly: Inhibition of steady-state expression of Raf-1 in MCF-7 breast cancer cells. The note with it: mcf7.

For the compound `CO[C@@H]1/C=C\C=C(/C)C(=O)NC2=CC(=O)C(NCC#CC[C@@H]3C[C@H]4[C@@H]5CCc6cc(O)ccc6[C@H]5CC[C@]4(C)[C@H]3O)=C(C[C@H](C)C[C@@H](OC)[C@@H](O)[C@H](C)/C=C(\C)[C@H]1OC(N)=O)C2=O`, the 50% inhibitory concentration (IC50) in assay [1] amounted to 220 nM; in assay [2], 100 nM; at Heat shock protein HSP90 it was 1.5 µM.

Take `CO[C@@H]1/C=C\C=C(/C)C(=O)NC2=CC(=O)C(NCCC[C@@H]3C[C@H]4[C@@H]5CCc6cc(O)ccc6[C@H]5CC[C@]4(C)[C@H]3O)=C(C[C@H](C)C[C@@H](OC)[C@@H](O)[C@H](C)/C=C(\C)[C@H]1OC(N)=O)C2=O`: the values for the IC50 (in assay [1]; in assay [2]; at Heat shock protein HSP90) were over 2000 nM, over 2000 nM and over 2 µM, respectively.

On to `CO[C@@H]1/C=C\C=C(/C)C(=O)NC2=CC(=O)C(NC/C=C/C[C@@H]3C[C@H]4[C@@H]5CCc6cc(O)ccc6[C@H]5CC[C@]4(C)[C@H]3O)=C(C[C@H](C)C[C@@H](OC)[C@@H](O)[C@H](C)/C=C(\C)[C@H]1OC(N)=O)C2=O`, for which the values for the IC50 (in assay [1]; in assay [2]; on Heat shock protein HSP90) were 80 nM, 100 nM and 1.5 µM, respectively.

`CO[C@@H]1/C=C\C=C(/C)C(=O)NC2=CC(=O)C(NCCCC[C@@H]3C[C@H]4[C@@H]5CCc6cc(O)ccc6[C@H]5CC[C@]4(C)[C@H]3O)=C(C[C@H](C)C[C@@H](OC)[C@@H](O)[C@H](C)/C=C(\C)[C@H]1OC(N)=O)C2=O`: the IC50 in assay [1] is over 2000 nM; in assay [2], over 2000 nM; against Heat shock protein HSP90, over 2 µM.

As a reminder, the IC50 is the concentration needed to halve the response being measured. Lower therefore signals greater potency.
